Test results as given in patent US20170183318A1, “AMIDE COMPOUNDS, METHODS FOR PREPARATION, AND USE THEREOF AS AGENTS FOR THE TREATMENT AND PREVENTION OF DISEASES CAUSED BY RNA- AND/OR DNA-CONTAINING VIRUSES, AND CONCOMITANT DISEASES” (OBSCHESTVO S OGRANICHENNOI OTVETSTVENNOSTIYU …, priority 2014, published 2017).
Starred links: 1 amine or outer side, 2 acyl side, 3 side chain; linkers in the order of their positions; H or OH if unused. Non-standard residues stand in square brackets, D forms with d. Residues, ends and D or L forms follow the SMILES beside them. ξ: configuration not given here. Glutaryl = O=C(CCCC(=O)[*:2])[*:1]; ξH = NC(Cc1c[nH]cn1)C(=O)O

tested on: human respiratory syncytial virus (strain A2); test: Antiviral activity against RS virus in a murine model of suppressed immune system (lung edema); assay type: in vivo; settings: Balb/c mice, cyclophosphan-suppressed, RS-virus pneumonia; 30 mg/kg once daily for 5 days; M ± SD, n = 5; scores from possible 4
Experimental: Antiviral activity of the chemical compounds against human respiratory syncytial virus (strain A2, an infectious titer of 5×10^6 TCID50/mL) was assessed in a Balb/c murine model of viral pneumonia. The virus was inoculated to animals intranasally in a volume of 50 μL under brief ether anesthesia. The immune response in animals to RS virus was suppressed by intraperitoneal administration of cyclophosphan at a dose of 100 mg/kg 5 days before infection. The studied compounds were administered according to the treatment regimen once daily at a dose of 30 mg/kg for 5 days, starting 24 hours after infection. The activity of the compounds was determined by a reduction in edema of the lung infected with respiratory syncytial virus, compared to the control, on day 5 after infection.

Q: With `COC(=O)CNC(=O)C(Cc1c[nH]cn1)NC(=O)CCCC(=O)O` (stereo not shown) [Compound 193] (Glutaryl-[ξH]-Gly-OMe) as the molecule, how does the “Degree of lung edema on day 5 after infection, score” value read?
A: 0.80 ± 0.17 score

tested on: Coxsackie A2 virus (strain HCXV A2); test: Antiviral activity against Coxsackie virus in vivo (mortality and life expectancy of infected mice); settings: Mus musculus, po, 168 h; 30 mg/kg orally once daily for 7 days; vs virus control; read-out: Protective index (%)
Experimental: In the study a trypsin-dependent strain HCXV A2 was used, previously adapted and causing death in mice from Coxsackie virus infection.
The experiment was carried out in white mice weighing 6 to 7 g. The animals were infected intramuscularly with a dose of 0.1 mL/mouse. The used infectious dose causing mortality in mice was 10LD50.
The ability of compounds to provide a therapeutic effect was determined by the mortality rate of HCXV A2 virus-infected mice in the experimental group relative to the group of untreated animals.
The studied compounds and placebo were administered orally according to the treatment regimen. Normal saline solution was administered to mice as placebo. Intact animals served as a negative control and were hold in a separate room under the same conditions as the experimental animals.
For the experiment, groups were formed with 14-15 animals each. Compounds were administered at a dose of 30 mg/kg of body weight. The studied compounds were administered orally once daily for 7 days (first administration was made 24 hours after infection). The animals were monitored for 15 days during which the animals were weighed and the mortality rate was registered every day.

Q: With `CC(C)(CCC(=O)NCCc1cnc[nH]1)C(=O)O` [Compound 44] as the molecule, how does the inhibition in vivo at 30 mg/kg read?
A: 55%

Q: Which inhibition in vivo at 30 mg/kg does the source give for `COC(=O)C(CO)NC(=O)C(Cc1cnc[nH]1)NC(=O)CCCC(=O)O` (stereo not drawn) [Compound 149] (Glutaryl-His-Ser-OMe; configuration not given here) here?
A: 27.2%

Q: Which inhibition in vivo at 30 mg/kg does the source give for `COC(=O)CNC(=O)C(Cc1c[nH]cn1)NC(=O)CCCC(=O)O` (stereo not shown) [Compound 193] (Glutaryl-[ξH]-Gly-OMe) here?
A: 45.3%

same assay, conditions: Mus musculus, po, 360 h, read-out: Total mortality, %

Q: For `CC(C)(CCC(=O)NCCc1cnc[nH]1)C(=O)O` [Compound 44], which mortality at 30 mg/kg is on record?
A: 28.6%

Q: With `COC(=O)C(CO)NC(=O)C(Cc1cnc[nH]1)NC(=O)CCCC(=O)O` (stereo not drawn) [Compound 149] (Glutaryl-His-Ser-OMe; configuration not given here) as the molecule, how does the mortality at 30 mg/kg read?
A: 53.3%

Q: Which mortality at 30 mg/kg does the source give for `COC(=O)CNC(=O)C(Cc1c[nH]cn1)NC(=O)CCCC(=O)O` (stereo not shown) [Compound 193] (Glutaryl-[ξH]-Gly-OMe) here?
A: 40.1%

same assay, conditions: difference vs virus control; 30 mg/kg orally once daily for 7 days

Q: For `CC(C)(CCC(=O)NCCc1cnc[nH]1)C(=O)O` [Compound 44], which “Average life expectancy (days), Compared with control” value is on record?
A: +20.1 days

Q: With `COC(=O)C(CO)NC(=O)C(Cc1cnc[nH]1)NC(=O)CCCC(=O)O` (stereo not drawn) [Compound 149] (Glutaryl-His-Ser-OMe; configuration not given here) as the molecule, how does the “Average life expectancy (days), Compared with control” value read?
A: +8.9 days

Q: For `COC(=O)CNC(=O)C(Cc1c[nH]cn1)NC(=O)CCCC(=O)O` (stereo not shown) [Compound 193] (Glutaryl-[ξH]-Gly-OMe), which “Average life expectancy (days), Compared with control” value is on record?
A: +14.2 days

same assay, conditions: mice infected with 10LD50 HCXV A2; 30 mg/kg orally once daily for 7 days

Q: For `CC(C)(CCC(=O)NCCc1cnc[nH]1)C(=O)O` [Compound 44], which “Average life expectancy (days), Relative” value is on record?
A: 32.3 days

Q: With `COC(=O)C(CO)NC(=O)C(Cc1cnc[nH]1)NC(=O)CCCC(=O)O` (stereo not drawn) [Compound 149] (Glutaryl-His-Ser-OMe; configuration not given here) as the molecule, how does the “Average life expectancy (days), Relative” value read?
A: 19.6 days

Q: Which “Average life expectancy (days), Relative” value does the source give for `COC(=O)CNC(=O)C(Cc1c[nH]cn1)NC(=O)CCCC(=O)O` (stereo not shown) [Compound 193] (Glutaryl-[ξH]-Gly-OMe) here?
A: 24.9 days

tested on: human virus hRSV; test: Antiviral activity against mouse-adapted RS virus (body weight; viral titer in lungs titrated in Hep-2 cells); assay type: in vivo, mice; settings: day 5; 10% lung suspension titrated in Hep-2 cells (TCID); compounds 30 mg/kg, Ribavirin 40 mg/kg
Experimental: Antiviral effectiveness of the chemical compounds against RSV in an experimental murine model in vivo was determined for human virus hRSV that was previously adapted to the growth in mouse lungs. The animals were infected with the virus at a dose of 0.5 log TCID50 intranasally under brief ether anesthesia in a volume of 0.05 ml/mouse. The studied compounds were administered orally once daily for 5 days according to the treatment regimen at a dose of 30 mg/kg. The first administration was made 24 hours after infection. Normal saline solution was administered to mice as placebo. Intact animals served as a negative control and were hold in a separate room under the same conditions as the experimental animals. Each experimental group comprised 12 animals.
The antiviral activity of the studied compounds was determined by the efficiency in the prevention of weight loss and by suppression of the reproduction of hRSV in the mouse lungs by measuring a viral titer in the experimental groups relative to the control on days 5 and 7 after infection.
In addition, the therapeutic action of the compounds of general formula I was determined by their ability to suppress the reproduction of hRSV in the mouse lungs on days 5 and 7 after infection. The viral titer was determined by the titration of a 10% lung suspension in Hep-2 cell culture. The result was registered 2 days after the incubation at 37° C. by TCID.

Q: Which “hRSV in the lungs of mice, Day 5, lg” value does the source give for `COC(=O)C(CO)NC(=O)C(Cc1cnc[nH]1)NC(=O)CCCC(=O)O` (stereo not drawn) [Compound 149] (Glutaryl-His-Ser-OMe; configuration not given here) here?
A: 2.6 ± 0.1 lg

same assay, conditions: day 5; compounds 30 mg/kg, Ribavirin 40 mg/kg, orally once daily for 5 days; n = 6

Q: For `COC(=O)C(CO)NC(=O)C(Cc1cnc[nH]1)NC(=O)CCCC(=O)O` (stereo not drawn) [Compound 149] (Glutaryl-His-Ser-OMe; configuration not given here), which “Body weight of the mice on day 5 after infection with hRSV (M ± SD)” value is on record?
A: 15.44 ± 0.31

same assay, conditions: day 7; 10% lung suspension titrated in Hep-2 cells (TCID); compounds 30 mg/kg, Ribavirin 40 mg/kg

Q: Which “hRSV in the lungs of mice, Day 7, lg” value does the source give for `COC(=O)C(CO)NC(=O)C(Cc1cnc[nH]1)NC(=O)CCCC(=O)O` (stereo not drawn) [Compound 149] (Glutaryl-His-Ser-OMe; configuration not given here) here?
A: 2.3 ± 0.4 lg

same assay, conditions: day 7; compounds 30 mg/kg, Ribavirin 40 mg/kg, orally once daily for 5 days; n = 6

Q: For `COC(=O)C(CO)NC(=O)C(Cc1cnc[nH]1)NC(=O)CCCC(=O)O` (stereo not drawn) [Compound 149] (Glutaryl-His-Ser-OMe; configuration not given here), which “Body weight of the mice on day 7 after infection with hRSV (M ± SD)” value is on record?
A: 17.32 ± 0.59

same assay, conditions: human respiratory syncytial virus, HEp-2, po, 120 h, read-out: Suppression of the reproduction of hRSV in the lungs of mice, Day 5, Δlg

Q: For `COC(=O)C(CO)NC(=O)C(Cc1cnc[nH]1)NC(=O)CCCC(=O)O` (stereo not drawn) [Compound 149] (Glutaryl-His-Ser-OMe; configuration not given here), which log reduction at 30 mg/kg is on record?
A: 1.9 ± 0.1

same assay, conditions: human respiratory syncytial virus, HEp-2, po, 168 h, read-out: Suppression of the reproduction of hRSV in the lungs of mice, Day 7, Δlg

Q: With `COC(=O)C(CO)NC(=O)C(Cc1cnc[nH]1)NC(=O)CCCC(=O)O` (stereo not drawn) [Compound 149] (Glutaryl-His-Ser-OMe; configuration not given here) as the molecule, how does the log reduction at 30 mg/kg read?
A: 1.4 ± 0.4

tested on: not listed separately; test: Rat model of nasopharyngitis induced by formalin (nasal mucosa changes, cell elements in nasal lavage); assay type: in vivo; settings: Wistar rats, 18 mg/kg for 3 days, number of animals out of n = 10, control 0 of 20
Experimental: Nasopharyngitis was induced by intranasal administration of formalin to each nasal passage of rats.
The administration of formalin to the nasal passages of rats leads to the dissemination of inflammation to adjacent tissues, resulting in a clinical pattern similar to the symptoms of nasopharyngitis in a human.
After an acclimatization period, the following groups were formed: • intact animals administered intragastrically a physiological solution in an amount of 0.2 ml, without induction of nasopharyngitis; • a control group consisted of animals administered intragastrically a physiological solution in an amount of 0.2 ml for 3 days after induction of nasopharyngitis; and • animals administered the studied compounds at a dose of 18 mg/kg for 3 days after induction of nasopharyngitis.
Clinical observation of each animal was performed every day at least twice daily.
The caused pathology was characterized by hyperplasia, increased number of caliciform cells, pronounced infiltration of mononuclear cells and leucocytes, and mucus hyperproduction by submucosal glands.
After euthanasia, the inflammation pattern in the nasal passages and throat was studied in each group of animals. The nasal passages were washed with 5 mL of physiological solution and the score of cell elements were counted in 1 μL.

Q: Which “Mucous membrane of nasal passages: Without changes (number of animals)” value does the source give for `CC(C)(CCC(=O)NCCc1cnc[nH]1)C(=O)O` [Compound 44] here?
A: 4

Q: With `COC(=O)C(CO)NC(=O)C(Cc1cnc[nH]1)NC(=O)CCCC(=O)O` (stereo not drawn) [Compound 149] (Glutaryl-His-Ser-OMe; configuration not given here) as the molecule, how does the “Mucous membrane of nasal passages: Without changes (number of animals)” value read?
A: 5

Q: With `COC(=O)CNC(=O)C(Cc1c[nH]cn1)NC(=O)CCCC(=O)O` (stereo not shown) [Compound 193] (Glutaryl-[ξH]-Gly-OMe) as the molecule, how does the “Mucous membrane of nasal passages: Without changes (number of animals)” value read?
A: 6

same assay, conditions: Wistar rats, 18 mg/kg for 3 days, number of animals out of n = 10, control 20 of 20

Q: Which “Mucous membrane of nasal passages: Discharge mucus from the nasal passages (number of animals)” value does the source give for `CC(C)(CCC(=O)NCCc1cnc[nH]1)C(=O)O` [Compound 44] here?
A: 6

Q: For `COC(=O)C(CO)NC(=O)C(Cc1cnc[nH]1)NC(=O)CCCC(=O)O` (stereo not drawn) [Compound 149] (Glutaryl-His-Ser-OMe; configuration not given here), which “Mucous membrane of nasal passages: Discharge mucus from the nasal passages (number of animals)” value is on record?
A: 5

Q: Which “Mucous membrane of nasal passages: Discharge mucus from the nasal passages (number of animals)” value does the source give for `COC(=O)CNC(=O)C(Cc1c[nH]cn1)NC(=O)CCCC(=O)O` (stereo not shown) [Compound 193] (Glutaryl-[ξH]-Gly-OMe) here?
A: 4

tested on: herpes simplex virus belonging to antigenic type 2; test: Murine model of experimental herpetic meningoencephalitis (mortality); assay type: in vivo, white outbred mice; settings: Mus musculus, po, 336 h
Experimental: In the study, herpes simplex virus belonging to antigenic type 2 was used. White outbred mice weighing 7-8 g were infected i/c (intracerebrally) in a volume of 0.05 ml/mouse comprising a dose of 10LD50. The infectious dose of the virus that caused 100% mortality in mice was 10LD50. Each experimental group comprised 20 mice. Intact animals served as control and were hold in a separate room under the same conditions as the experimental animals. The antiviral activity of the compounds of general formula I was studied by oral administration of the compounds to infected mice once daily at a dose of 30 mg/kg/mouse 24, 48, 72, 96, and 120 hours after infection of the animals with the virus. The mice of the control group were administered placebo (0.2 mL of physiological solution) under the same conditions. The animals were monitored for 14 days after infection by registration the mouse death in the groups.
Each animal was subjected to once-daily observation. The observation included the assessment of general behavior and body condition of animals. The animals were handled according to the International Standards.
The activity of the compounds was evaluated by comparing mortality rates in the groups of animals administered a preparation and placebo.

Q: For `CC(C)(CCC(=O)NCCc1cnc[nH]1)C(=O)O` [Compound 44], which mortality at 30 mg/kg is on record?
A: 40%

Q: Which mortality at 30 mg/kg does the source give for `COC(=O)C(CO)NC(=O)C(Cc1cnc[nH]1)NC(=O)CCCC(=O)O` (stereo not drawn) [Compound 149] (Glutaryl-His-Ser-OMe; configuration not given here) here?
A: 25%

Q: With `COC(=O)CNC(=O)C(Cc1c[nH]cn1)NC(=O)CCCC(=O)O` (stereo not shown) [Compound 193] (Glutaryl-[ξH]-Gly-OMe) as the molecule, how does the mortality at 30 mg/kg read?
A: 25%
